Experimental data: patent publication US4172145A, “Benzo(b)furylacetic acid derivatives to reduce inflammation” (priority 1975, dated 1979)
Read-outs that look alike come from different tables or passages of the source.

Key:
[1] = tested on: carrageenin-induced edema on the hind paw of rats; assay: Anti-edema effect on carrageenin-induced edema on the hind paw of rats (Carrageenin Edema Method); format: in vivo, rat (male Wistar strain); details: rat, oral, 3 hours after carrageenin; for inhibition in vivo at 150 mg/kg / inhibition in vivo at 75 mg/kg / inhibition in vivo at 300 mg/kg: read-out: Anti-edema Effect, Suppression Ratio
Protocol: The anti-edema effect was determined according to the method of Yamazaki et al [Yamazaki, H., et al; Folia Pharmacologica Japonica, 63, 302 (1967)].
In this test, a group consisting of five rats (male Wistar strain: weight 100-120 g) was used for the test and control groups. The compounds shown in Table 2 were administered orally to the rats of the test group. After one hour, 0.1 ml of a 1% carrageenin solution (phlogistic agent) was further administered to each rat by subcutaneous injection in one hind paw. To each rat of the control group, 0.1 ml of a 1% carrageenin solution was also administered in a similar manner to that for test rats. 1, 3 and 5 hours after administration of the phlogistic agent, the swelling ratio was calculated by means of the following equation: […]
Test group [formula] in which b: swelling ratio
B: volume of a hind paw without administration of phlogistic agent
B': volume of a hind paw administered with phlogistic agent
Control group [formula] in which a: swelling ratio
A: volume of a hind paw without administration of phlogistic agent
A': volume of a hind paw administered with phlogistic agent
The anti-edema effect was expressed as the suppression ratio of the edema in comparison with the control group to which the test compound had not been administered. The suppression ratio of the edema was determined 3 hours after administration of the phlogistic agent and was calculated by means of the following equation: [formula] in which a and b are as hereinbefore defined.

[2] = tested on: acetic acid-induced writhing reactions in mice; assay: Analgesic activity in mice (AcOH Writhing Method); format: in vivo, mouse (male dd-strain); details: mouse, oral
Protocol: In this test, three groups, each consisting of 10 mice (male dd-strain; weight: 19-21 g) were used. The compounds shown in Table 3 were administered orally to the test mice. One hour after the administration, the mice were treated with 0.1 ml/10 g of 0.7% acetic acid solution in physiological saline by intraperitoneal injection according to the method of Koster et al [Koster, R., et al; Fed. Proc., 18, 412 (1959)]. Ten minutes after the treatment, the number of writhing reactions occurring in the mice was counted.

[3] = tested on: pain threshold of inflamed and not inflamed paws of rats; assay: Analgesic activity in rats (Randall-Selitto Method); format: in vivo, rat (male Wister strain); details: Rattus norvegicus, po, P.O. 150 mg/kg, read-out: Analgesic Coefficient
Protocol: A group consisting of 6-7 rats (male Wister strain; weight: 100-120 g) was used for the test and control groups in this test. Each rat of both groups was treated with 0.1 ml of a 1% carrageenin solution as phlogistic agent by subcutaneous injection in one hind paw. 3 hours after the administration, pressure was applied to the treated paw of each rat by means of a pressing device (manufactured by Ugobasile S. A., Italy). The threshold of pain induced by press was measured with reference to the shriek and struggle according to the method of Randall and Selitto [Randall, L. O. and Selitto, J. J.; Arch, Int. Pharmocodyn., 111, 409 (1957)]. From each group 5 rats having a good response reaction, i.e. the pain threshold was not more than 70 g, were respectively selected. […] 1, 2 and 3 hours after administration, pressure was again applied to both the inflamed and not inflamed paws of the test rats and the pain threshold was measured. On the other hand, without the administration of the active compound, the pressure was applied to both the inflamed and not inflamed paws of the selected 5 rats of the control group and the pain threshold was measured. The inflamed paws of the test and control groups were compared with each other. Also the not inflamed paws of the both groups were compared with each other.
The analgesic coefficient was calculated by means of the following equation, and the larger analgesic coefficient the better analgesic activity. [formula] in which X: analgesic coefficient (%)
P1 : threshold (g) of the test rats administered with active compounds
P2 : threshold (g) of the control rats without administration of active compound

[4] = in vivo; details: rat, po
Protocol: A test group consisting of 10-15 rats (male Wistar strain; weight: 180-220 g) was used in this test. Each rat was fasted for 20 hours, but water was allowed ad libitum. The compounds shown in Table 5 were administered orally. After a 20-hour interval during which the rats were not fed but were allowed water, each rat was administered under ether anesthesia with 0.5 ml per 100 g body weight of a 5% solution of pontamine sky blue 6BX in saline (pH 7.2--adjusted with 0.5 N HCl) by intravenous injection. 15 minutes after administration each rat was killed. The stomach was removed and maintained in a 1% formalin solution. After about 2 hours, the stomach was opened along the greater curvature and the length of lesions (dark blue areas against pale blue background) in the glandular portion was measured under a dissecting microscope (10×) provided with a square grid. The sum of the lengths (mm) of lesions was used as ulcer index.

[5] = in vivo; details: oral, observed one week, Litchfield and Wilcoxon
Protocol: In this test, five groups, each consisting of 5 mice (male dd strain; weight: 19-21 g) and 5 rats (male Wistar strain; weight: 100-120 g) were used. […] The LD50 was calculated according to the method of Litchfield and Wilcoxon [Journal of Pharmacol. and Exper. Therap.

[6] = 1 h before acetic acid, read-out: Analgesic Effect (AcOH Writhing Method), Suppression Ratio
[7] = mouse, read-out: Acute Toxicity (P.O.), LD50, Mouse
[8] = rat, read-out: Acute Toxicity (P.O.), LD50, Rat

## CC(C)Cc1ccc(C(C)C(=O)O)cc1 (stereo not drawn) [Ibuprofen, reference compound]
[1]
  inhibition in vivo at 150 mg/kg: 45.3%
[2]; [6]
  inhibition in vivo at 150 mg/kg: 57.2%
[3]; 1 h, inflamed paw, 1 hr.
  change in vivo at 150 mg/kg: 20.9%
[3]; 1 h, not inflamed paw, 1 hr.
  change in vivo at 150 mg/kg: 0.5%
[3]; 2 h, inflamed paw, 2 hr.
  change in vivo at 150 mg/kg: 28.8%
[3]; 2 h, not inflamed paw, 2 hr.
  change in vivo at 150 mg/kg: 5.5%
[3]; 3 h, inflamed paw, 3 hr.
  change in vivo at 150 mg/kg: 23.3%
[3]; 3 h, not inflamed paw, 3 hr.
  change in vivo at 150 mg/kg: 4.2%
[4]
  TD50 at 20 h: 46 mg/kg

## Cc1c(CC(=O)O)oc2ccc(Cc3ccccc3)cc12 [Test Compound 8, 5-benzyl-3-methyl-2-benzo(b)furylacetic acid]
[5]; [7]
  LD50 at 168 h: 500 to 1000 mg/kg
[5]; [8]
  LD50 at 168 h: > 300 mg/kg
[1]
  inhibition in vivo at 150 mg/kg: 31.1%
[2]; [6]
  inhibition in vivo at 150 mg/kg: 30.5%
  inhibition in vivo at 300 mg/kg: 55.6%
[3]; 1 h, inflamed paw, 1 hr.
  change in vivo at 150 mg/kg: 23.1%
[3]; 1 h, not inflamed paw, 1 hr.
  change in vivo at 150 mg/kg: 1.7%
[3]; 2 h, inflamed paw, 2 hr.
  change in vivo at 150 mg/kg: 24.7%
[3]; 2 h, not inflamed paw, 2 hr.
  change in vivo at 150 mg/kg: 0.7%
[3]; 3 h, inflamed paw, 3 hr.
  change in vivo at 150 mg/kg: 29.5%
[3]; 3 h, not inflamed paw, 3 hr.
  change in vivo at 150 mg/kg: 6.1%

## Cc1c(CC(=O)O)oc2ccc(-c3ccccc3)cc12 [Test Compound 7, 5-phenyl-3-methyl-2-benzo(b)furylacetic acid]
[5]; [7]
  LD50 at 168 h: 500 to 1000 mg/kg
[5]; [8]
  LD50 at 168 h: > 300 mg/kg
[1]
  inhibition in vivo at 75 mg/kg: 52.7%
  inhibition in vivo at 150 mg/kg: 63.9%
  inhibition in vivo at 300 mg/kg: 73.3%
  ED50: 70 mg/kg
[2]; [6]
  inhibition in vivo at 150 mg/kg: 20.9%
  inhibition in vivo at 300 mg/kg: 77.6%
[3]; 1 h, inflamed paw, 1 hr.
  change in vivo at 150 mg/kg: 37.2%
[3]; 1 h, not inflamed paw, 1 hr.
  change in vivo at 150 mg/kg: 8%
[3]; 2 h, inflamed paw, 2 hr.
  change in vivo at 150 mg/kg: 23.3%
[3]; 2 h, not inflamed paw, 2 hr.
  change in vivo at 150 mg/kg: 2.4%
[3]; 3 h, inflamed paw, 3 hr.
  change in vivo at 150 mg/kg: 11.3%
[3]; 3 h, not inflamed paw, 3 hr.
  change in vivo at 150 mg/kg: 4.7%

## Cc1c(CC(=O)O)oc2ccccc12 [Test Compound 1, 3-methyl-2-benzo(b)furylacetic acid]
[5]; [7]
  LD50 at 168 h: > 1100 mg/kg
[5]; [8]
  LD50 at 168 h: > 300 mg/kg
[1]
  inhibition in vivo at 75 mg/kg: 25.3%
  inhibition in vivo at 150 mg/kg: 41.2%
  inhibition in vivo at 300 mg/kg: 54.2%
  ED50: 240 mg/kg
[2]; 75 mg/kg, 1 h before acetic acid, read-out: Analgesic Effect (AcOH Writhing Method), Suppression Ratio
  inhibition in vivo at 75 mg/kg: 21.7%
[2]; [6]
  inhibition in vivo at 150 mg/kg: 42.9%
  inhibition in vivo at 300 mg/kg: 70.9%
[2]; read-out: Analgesic Effect (AcOH Writhing Method), ED50
  ED50: 170 mg/kg
[3]; 1 h, inflamed paw, 1 hr.
  change in vivo at 150 mg/kg: 13.8%
[3]; 1 h, not inflamed paw, 1 hr.
  change in vivo at 150 mg/kg: 0.4%
[3]; 2 h, inflamed paw, 2 hr.
  change in vivo at 150 mg/kg: 5.9%
[3]; 2 h, not inflamed paw, 2 hr.
  change in vivo at 150 mg/kg: 1.7%
[3]; 3 h, inflamed paw, 3 hr.
  change in vivo at 150 mg/kg: 4.2%
[3]; 3 h, not inflamed paw, 3 hr.
  change in vivo at 150 mg/kg: 0%

## Cc1c(CC(=O)O)oc2ccc(C3CCCCC3)cc12 [Test Compound 9, 5-cyclohexyl-3-methyl-2-benzo(b)furylacetic acid]
[5]; [7]
  LD50 at 168 h: > 1000 mg/kg
[5]; [8]
  LD50 at 168 h: > 150 mg/kg
[1]
  inhibition in vivo at 150 mg/kg: 28%
[3]; 1 h, inflamed paw, 1 hr.
  change in vivo at 150 mg/kg: 0%
[3]; 1 h, not inflamed paw, 1 hr.
  change in vivo at 150 mg/kg: 0%
[3]; 2 h, inflamed paw, 2 hr.
  change in vivo at 150 mg/kg: 2%
[3]; 2 h, not inflamed paw, 2 hr.
  change in vivo at 150 mg/kg: 0%
[3]; 3 h, inflamed paw, 3 hr.
  change in vivo at 150 mg/kg: 32%
[3]; 3 h, not inflamed paw, 3 hr.
  change in vivo at 150 mg/kg: 17.2%

## Cc1c(CC(=O)O)oc2ccc(C(C)(C)C)cc12 [Test Compound 6, 5-tert-butyl-3-methyl-2-benzo(b)furylacetic acid]
[5]; [7]
  LD50 at 168 h: > 1000 mg/kg
[5]; [8]
  LD50 at 168 h: > 300 mg/kg
[1]
  inhibition in vivo at 150 mg/kg: 39.9%
[2]; [6]
  inhibition in vivo at 150 mg/kg: 23.7%
[3]; 1 h, inflamed paw, 1 hr.
  change in vivo at 150 mg/kg: 19.5%
[3]; 1 h, not inflamed paw, 1 hr.
  change in vivo at 150 mg/kg: 6%
[3]; 2 h, inflamed paw, 2 hr.
  change in vivo at 150 mg/kg: 17.8%
[3]; 2 h, not inflamed paw, 2 hr.
  change in vivo at 150 mg/kg: 0.8%
[3]; 3 h, inflamed paw, 3 hr.
  change in vivo at 150 mg/kg: 14.4%
[3]; 3 h, not inflamed paw, 3 hr.
  change in vivo at 150 mg/kg: 1.3%
